{"source": "patent US20250320203A1", "about": "“4-(3H-PYRAZOLO[4,3-F]QUINOLIN-7-YL)-N-(2-(DIMETHYLAMINO)ETHYL)BENZAMIDE- OR HYDROXAMIC ACID COMPOUNDS, COMPOSITIONS, AND METHODS OF USE” (Purdue Research Foundation, priority 2022, published 2025)", "key": {"haspin": {"molecular_target": "T1, haspin (Homo sapiens, UniProt Q8TF76)", "T1 sequence (Q8TF76 1-798)": "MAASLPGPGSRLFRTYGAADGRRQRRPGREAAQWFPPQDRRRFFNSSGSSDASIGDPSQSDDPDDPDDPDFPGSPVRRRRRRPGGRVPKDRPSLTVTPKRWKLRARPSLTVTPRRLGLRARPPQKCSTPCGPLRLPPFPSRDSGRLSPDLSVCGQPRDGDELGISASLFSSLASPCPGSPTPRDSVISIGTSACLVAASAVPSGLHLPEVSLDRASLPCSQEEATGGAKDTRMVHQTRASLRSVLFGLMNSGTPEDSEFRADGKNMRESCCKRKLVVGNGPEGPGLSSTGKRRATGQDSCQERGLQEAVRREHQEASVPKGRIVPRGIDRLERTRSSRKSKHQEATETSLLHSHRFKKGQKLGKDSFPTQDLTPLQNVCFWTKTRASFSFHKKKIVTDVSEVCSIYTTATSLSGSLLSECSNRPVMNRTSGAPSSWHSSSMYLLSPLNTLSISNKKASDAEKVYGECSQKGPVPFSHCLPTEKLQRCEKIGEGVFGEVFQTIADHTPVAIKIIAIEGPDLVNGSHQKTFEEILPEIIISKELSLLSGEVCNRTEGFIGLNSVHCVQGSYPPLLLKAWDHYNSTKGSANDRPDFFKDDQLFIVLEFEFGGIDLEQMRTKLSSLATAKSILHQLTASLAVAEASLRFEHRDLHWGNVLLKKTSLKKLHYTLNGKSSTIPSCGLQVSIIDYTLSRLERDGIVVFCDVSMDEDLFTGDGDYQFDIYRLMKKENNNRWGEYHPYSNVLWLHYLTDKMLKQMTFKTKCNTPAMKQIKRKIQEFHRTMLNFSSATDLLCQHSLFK", "assay": "Haspin binding Kd (Eurofins)", "design": "purchased Eurofins (contract research service)"}, "Molm 14-ITD-D835Y": {"test_system": "Molm 14-ITD-D835Y", "assay": "Cell viability GI50, Molm 14-ITD-D835Y", "type": "cell-based", "settings": "Homo sapiens; 72 hours", "experimental": "More specifically, cells were cultured to confluence in RPMI medium supplemented with 10% fetal bovine serum and 1× Penicillin-Streptomycin (Gibco™). Cells were plated at 5,000 cells/well in 96 well plates. After 24-hour incubation at 37° C. in a 5% CO2 incubator, compounds diluted in the same media were added to the indicated final concentration and allowed to incubate at 37° C. in a 5% CO2 incubator for 72 hours. Viability was determined using CellTiter-Blue® Cell Viability Assay (Promega, Madison, WI) with absorbance readings at 570 nm performed on a Cytation™ 5 Cell Imaging Multi-Mode Reader (BioTek) 3 hours after addition. Appropriate vehicle and cell-free controls were included. GI50 readings were confirmed by two scientists on two separate days.\nScholl et al. (2020), supra. Accordingly, Compound HSK205 was evaluated against Molm-14 cell lines that harbor resistant mutations commonly found in the clinic, FLT3-ITD-D835Y and F691L (FIG. 15)."}, "FLT3-D835Y": {"molecular_target": "T2, FLT3-D835Y (Homo sapiens, UniProt P36888, D835Y)", "T2 construct": "purchased Reaction Biology (contract research service)", "T2 sequence (P36888 27-993 D835Y)": "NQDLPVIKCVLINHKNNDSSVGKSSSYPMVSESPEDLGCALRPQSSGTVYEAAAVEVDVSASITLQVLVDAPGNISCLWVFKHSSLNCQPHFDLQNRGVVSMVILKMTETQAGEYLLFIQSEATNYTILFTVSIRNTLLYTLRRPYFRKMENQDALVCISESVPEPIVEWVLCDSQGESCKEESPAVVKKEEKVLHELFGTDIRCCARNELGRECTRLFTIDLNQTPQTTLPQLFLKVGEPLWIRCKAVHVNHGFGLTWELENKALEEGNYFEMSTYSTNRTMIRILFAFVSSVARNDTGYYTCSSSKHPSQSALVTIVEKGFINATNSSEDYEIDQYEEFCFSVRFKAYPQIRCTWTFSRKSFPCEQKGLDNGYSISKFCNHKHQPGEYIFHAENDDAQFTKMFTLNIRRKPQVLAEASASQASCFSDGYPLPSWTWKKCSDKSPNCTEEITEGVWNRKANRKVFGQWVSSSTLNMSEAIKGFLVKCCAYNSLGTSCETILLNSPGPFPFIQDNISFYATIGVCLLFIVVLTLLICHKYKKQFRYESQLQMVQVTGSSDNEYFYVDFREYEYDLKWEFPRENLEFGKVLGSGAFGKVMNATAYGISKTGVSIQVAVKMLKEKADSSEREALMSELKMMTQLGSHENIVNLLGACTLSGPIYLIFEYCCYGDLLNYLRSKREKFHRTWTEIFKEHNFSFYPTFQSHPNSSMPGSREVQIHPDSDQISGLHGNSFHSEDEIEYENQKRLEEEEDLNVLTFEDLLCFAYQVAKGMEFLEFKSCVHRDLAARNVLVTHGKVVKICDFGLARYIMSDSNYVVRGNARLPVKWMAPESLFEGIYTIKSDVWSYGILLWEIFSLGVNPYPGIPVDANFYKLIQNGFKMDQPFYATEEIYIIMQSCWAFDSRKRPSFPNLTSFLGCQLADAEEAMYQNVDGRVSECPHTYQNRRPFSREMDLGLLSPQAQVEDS", "assay": "FLT3 (D835Y) enzyme inhibition, 10-dose IC50 (Reaction Biology)", "type": "biochemical", "settings": "10 μM ATP"}}}
{"smiles": "Cc1c[nH]c(CNC(=O)c2ccc(-c3nc4ccc5[nH]ncc5c4c4c3CCCC4)cc2)n1", "note": "[Compound HSK205]", "values": [{"measurement": "Kd", "setting": "haspin", "result": 0.55, "unit": "nM"}, {"measurement": "GI50", "setting": "Molm 14-ITD-D835Y", "result": 4.3, "unit": "nM"}, {"measurement": "IC50", "setting": "FLT3-D835Y", "result": "< 0.5", "unit": "nM"}]}
